Publication PMC12687453, “Plasma membrane folate transport in fungi and plants is mediated by members of the oligopeptide transporter (OPT) family” (Biochemical Journal, 2025)

Key:
Assay in all cases: LC-MS/MS cellular uptake versus vector control
Assay type in all cases: cell-based
CaOPT1 = target: T1, CaOPT1 (Candida albicans, UniProt Q5YBA3); conditions: 100 uM folinic acid, opt1-delta cells, pH 5.5, 30 °C, 5 min
T1 construct: gene OPT1; TEF promoter plasmid, expressed in S. cerevisiae opt1-delta cells
T1 sequence (Q5YBA3 1-783): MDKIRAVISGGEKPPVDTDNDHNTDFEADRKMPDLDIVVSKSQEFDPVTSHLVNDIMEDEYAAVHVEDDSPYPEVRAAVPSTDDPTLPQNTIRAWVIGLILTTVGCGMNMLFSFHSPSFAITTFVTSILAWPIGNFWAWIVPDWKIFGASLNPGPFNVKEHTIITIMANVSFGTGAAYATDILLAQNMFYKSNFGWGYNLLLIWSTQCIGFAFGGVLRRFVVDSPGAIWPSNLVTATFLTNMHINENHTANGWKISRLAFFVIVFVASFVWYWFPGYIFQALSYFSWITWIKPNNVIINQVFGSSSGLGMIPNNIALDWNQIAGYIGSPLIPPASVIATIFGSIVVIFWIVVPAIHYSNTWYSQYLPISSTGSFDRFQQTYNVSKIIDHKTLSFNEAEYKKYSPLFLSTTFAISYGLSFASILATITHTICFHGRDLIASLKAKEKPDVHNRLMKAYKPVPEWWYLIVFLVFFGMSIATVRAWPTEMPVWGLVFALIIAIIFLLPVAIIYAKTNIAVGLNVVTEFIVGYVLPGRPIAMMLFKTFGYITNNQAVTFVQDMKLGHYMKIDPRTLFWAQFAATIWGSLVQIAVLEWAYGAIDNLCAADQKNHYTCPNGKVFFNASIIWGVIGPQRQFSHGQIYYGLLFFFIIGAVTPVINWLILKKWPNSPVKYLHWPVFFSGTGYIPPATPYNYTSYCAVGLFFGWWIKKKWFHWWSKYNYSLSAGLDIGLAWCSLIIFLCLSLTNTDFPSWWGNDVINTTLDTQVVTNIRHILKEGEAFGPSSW

AtOPT6 = target: T2, AtOPT6 (Arabidopsis thaliana, UniProt Q9T095); conditions: 100 uM folinic acid, opt1-delta cells, pH 5.5, 30 °C, 5 min
T2 construct: gene OPT6; cDNA from Arabidopsis Biological Resource Center, TEF promoter plasmid, in S. cerevisiae opt1-delta cells
T2 sequence (Q9T095 1-736): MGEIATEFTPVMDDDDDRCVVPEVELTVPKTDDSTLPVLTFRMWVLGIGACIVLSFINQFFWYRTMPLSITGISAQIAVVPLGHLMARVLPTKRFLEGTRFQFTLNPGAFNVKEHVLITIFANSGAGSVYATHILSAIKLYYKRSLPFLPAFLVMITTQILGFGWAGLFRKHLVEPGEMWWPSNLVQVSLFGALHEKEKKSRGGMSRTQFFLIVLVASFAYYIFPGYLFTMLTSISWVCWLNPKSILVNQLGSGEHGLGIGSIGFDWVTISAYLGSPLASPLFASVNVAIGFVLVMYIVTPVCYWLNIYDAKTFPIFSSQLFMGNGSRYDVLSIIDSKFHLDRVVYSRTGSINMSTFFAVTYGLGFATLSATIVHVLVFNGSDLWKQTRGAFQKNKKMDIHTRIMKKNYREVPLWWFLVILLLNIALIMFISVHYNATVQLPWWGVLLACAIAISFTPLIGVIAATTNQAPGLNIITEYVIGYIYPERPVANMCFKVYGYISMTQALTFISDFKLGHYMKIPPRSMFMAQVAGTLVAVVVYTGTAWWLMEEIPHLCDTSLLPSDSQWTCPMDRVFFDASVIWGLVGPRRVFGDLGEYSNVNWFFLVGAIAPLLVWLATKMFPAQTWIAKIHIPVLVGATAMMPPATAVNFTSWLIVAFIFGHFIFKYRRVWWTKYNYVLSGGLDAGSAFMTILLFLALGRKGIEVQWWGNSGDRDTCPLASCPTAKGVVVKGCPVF

AtOPT2 = target: T3, AtOPT2 (Arabidopsis thaliana, UniProt O04514); conditions: 100 uM folinic acid, opt1-delta cells, pH 5.5, 30 °C, 5 min
T3 construct: gene OPT2; cDNA from Arabidopsis Biological Resource Center, TEF promoter plasmid, in S. cerevisiae opt1-delta cells
T3 sequence (O04514 1-734): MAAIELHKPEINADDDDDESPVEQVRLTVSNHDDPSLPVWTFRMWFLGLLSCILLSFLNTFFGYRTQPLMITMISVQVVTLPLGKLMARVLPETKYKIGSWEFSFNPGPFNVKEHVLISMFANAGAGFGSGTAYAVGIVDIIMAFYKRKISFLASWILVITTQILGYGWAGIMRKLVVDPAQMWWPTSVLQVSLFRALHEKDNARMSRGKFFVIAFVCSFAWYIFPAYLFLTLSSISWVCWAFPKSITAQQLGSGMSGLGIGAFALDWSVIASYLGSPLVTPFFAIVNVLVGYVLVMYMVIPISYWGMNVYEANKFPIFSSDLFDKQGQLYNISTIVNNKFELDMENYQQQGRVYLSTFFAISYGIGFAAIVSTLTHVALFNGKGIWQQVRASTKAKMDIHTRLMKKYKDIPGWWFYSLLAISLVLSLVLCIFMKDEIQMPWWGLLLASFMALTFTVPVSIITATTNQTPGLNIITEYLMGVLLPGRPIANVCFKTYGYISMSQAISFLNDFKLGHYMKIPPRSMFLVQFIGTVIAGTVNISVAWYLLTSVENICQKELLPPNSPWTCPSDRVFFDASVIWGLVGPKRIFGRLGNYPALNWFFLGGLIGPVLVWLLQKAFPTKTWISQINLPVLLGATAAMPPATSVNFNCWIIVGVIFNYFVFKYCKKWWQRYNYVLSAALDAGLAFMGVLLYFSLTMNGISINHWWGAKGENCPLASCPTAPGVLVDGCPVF

AtOPT4 = target: T4, AtOPT4 (Arabidopsis thaliana, UniProt Q9FME8); conditions: 100 uM folinic acid, opt1-delta cells, pH 5.5, 30 °C, 5 min
T4 construct: gene OPT4; cDNA from Arabidopsis Biological Resource Center, TEF promoter plasmid, in S. cerevisiae opt1-delta cells
T4 sequence (Q9FME8 2-729): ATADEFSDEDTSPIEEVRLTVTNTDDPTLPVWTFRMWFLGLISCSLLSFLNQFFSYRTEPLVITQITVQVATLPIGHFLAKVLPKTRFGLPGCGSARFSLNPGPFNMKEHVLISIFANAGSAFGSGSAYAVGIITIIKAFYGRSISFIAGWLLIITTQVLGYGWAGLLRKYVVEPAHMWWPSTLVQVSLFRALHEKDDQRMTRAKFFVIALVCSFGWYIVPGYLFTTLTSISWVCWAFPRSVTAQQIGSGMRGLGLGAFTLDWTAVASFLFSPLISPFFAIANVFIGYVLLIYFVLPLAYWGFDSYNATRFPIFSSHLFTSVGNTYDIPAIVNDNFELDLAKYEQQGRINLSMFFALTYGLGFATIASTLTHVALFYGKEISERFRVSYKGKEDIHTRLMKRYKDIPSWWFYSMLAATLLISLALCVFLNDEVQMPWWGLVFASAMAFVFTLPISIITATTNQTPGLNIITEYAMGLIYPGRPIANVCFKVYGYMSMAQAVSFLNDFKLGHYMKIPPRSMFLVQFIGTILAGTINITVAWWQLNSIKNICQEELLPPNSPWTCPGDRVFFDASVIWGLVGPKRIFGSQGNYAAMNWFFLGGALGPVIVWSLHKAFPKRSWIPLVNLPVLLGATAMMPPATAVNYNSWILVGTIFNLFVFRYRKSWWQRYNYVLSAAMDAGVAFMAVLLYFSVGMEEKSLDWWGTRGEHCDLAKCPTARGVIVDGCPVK

Opt1p/Hgt1p (ScOPT1) = target: T5, Opt1p/Hgt1p (ScOPT1) (Saccharomyces cerevisiae, UniProt P40897); conditions: 100 uM folinic acid, opt1-delta cells, pH 5.5, 30 °C; time course
T5 construct: gene OPT1; full-length plasma membrane transporter, TEF promoter plasmid, in S. cerevisiae opt1-delta cells
T5 sequence (P40897 1-799): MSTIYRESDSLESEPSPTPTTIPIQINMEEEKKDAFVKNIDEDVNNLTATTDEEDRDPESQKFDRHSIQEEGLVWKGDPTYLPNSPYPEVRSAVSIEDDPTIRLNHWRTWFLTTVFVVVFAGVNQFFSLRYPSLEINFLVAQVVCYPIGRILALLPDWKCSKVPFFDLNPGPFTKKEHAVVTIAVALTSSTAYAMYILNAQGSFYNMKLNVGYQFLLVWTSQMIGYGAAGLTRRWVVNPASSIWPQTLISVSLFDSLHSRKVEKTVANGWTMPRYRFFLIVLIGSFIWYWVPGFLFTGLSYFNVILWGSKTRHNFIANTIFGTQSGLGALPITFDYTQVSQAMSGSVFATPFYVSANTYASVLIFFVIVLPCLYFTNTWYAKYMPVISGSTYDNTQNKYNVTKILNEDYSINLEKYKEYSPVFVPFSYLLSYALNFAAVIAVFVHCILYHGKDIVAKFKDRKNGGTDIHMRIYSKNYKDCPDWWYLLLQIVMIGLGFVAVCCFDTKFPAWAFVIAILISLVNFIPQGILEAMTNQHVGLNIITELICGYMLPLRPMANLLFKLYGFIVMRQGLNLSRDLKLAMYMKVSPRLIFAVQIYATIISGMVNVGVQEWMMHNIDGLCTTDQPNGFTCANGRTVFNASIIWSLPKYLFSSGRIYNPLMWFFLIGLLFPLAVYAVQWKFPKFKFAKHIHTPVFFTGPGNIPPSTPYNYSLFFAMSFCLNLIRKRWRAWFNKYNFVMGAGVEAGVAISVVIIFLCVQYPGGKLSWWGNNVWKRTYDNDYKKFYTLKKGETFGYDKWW

AfOPTH = target: T6, AfOPTH (Aspergillus fumigatus, UniProt Q4WAD5); conditions: 100 uM folinic acid, opt1-delta cells, pH 5.5, 30 °C, 5 min
T6 construct: gene AFUA_7G00910; plasmid-expressed in S. cerevisiae opt1-delta cells (MET25 promoter; TEF)
T6 sequence (Q4WAD5 1-757): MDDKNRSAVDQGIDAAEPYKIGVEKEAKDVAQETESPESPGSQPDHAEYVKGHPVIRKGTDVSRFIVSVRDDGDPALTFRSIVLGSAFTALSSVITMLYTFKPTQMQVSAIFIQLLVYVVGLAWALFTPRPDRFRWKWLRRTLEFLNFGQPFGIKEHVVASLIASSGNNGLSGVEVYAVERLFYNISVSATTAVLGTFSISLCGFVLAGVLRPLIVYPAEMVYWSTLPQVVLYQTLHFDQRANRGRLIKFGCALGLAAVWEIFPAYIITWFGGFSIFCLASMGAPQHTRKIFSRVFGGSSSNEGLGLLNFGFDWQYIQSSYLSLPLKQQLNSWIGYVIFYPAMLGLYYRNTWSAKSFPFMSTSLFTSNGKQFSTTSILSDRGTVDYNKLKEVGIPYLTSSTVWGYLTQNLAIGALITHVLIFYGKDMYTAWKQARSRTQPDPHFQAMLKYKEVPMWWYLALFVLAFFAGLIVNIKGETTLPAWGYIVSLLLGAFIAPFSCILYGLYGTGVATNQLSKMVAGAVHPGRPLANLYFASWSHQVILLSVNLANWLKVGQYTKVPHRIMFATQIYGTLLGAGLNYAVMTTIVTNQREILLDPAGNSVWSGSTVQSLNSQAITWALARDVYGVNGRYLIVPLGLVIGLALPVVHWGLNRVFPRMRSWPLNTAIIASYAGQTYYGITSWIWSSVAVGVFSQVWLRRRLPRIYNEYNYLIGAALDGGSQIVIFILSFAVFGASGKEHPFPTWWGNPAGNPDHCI

In the case of `Nc1nc2c(c(=O)[nH]1)N(C=O)[C@@H](CNc1ccc(C(=O)N[C@@H](CCC(=O)O)C(=O)O)cc1)CN2` [folinic acid], the “LC-MS/MS cellular uptake versus vector control” value (CaOPT1) is reported as “confirmed the ability of C. albicans CaOPT1 to transport folate by uptake assays”, the “LC-MS/MS cellular uptake versus vector control” value (AtOPT6) is reported as “AtOPT2 and AtOPT4 and even AtOPT6 contribute to folate transport” and the “LC-MS/MS cellular uptake versus vector control” value (AtOPT2) is reported as “AtOPT2 and AtOPT4 and even AtOPT6 contribute to folate transport”. The “LC-MS/MS cellular uptake versus vector control” value (AtOPT4) was “AtOPT2 and AtOPT4 and even AtOPT6 contribute to folate transport”, the “LC-MS/MS cellular uptake versus vector control” value (Opt1p/Hgt1p (ScOPT1)) was “a rapid increase in intracellular folinic acid was observed in the cells bearing TEF-OPT1 plasmid” and the “LC-MS/MS cellular uptake versus vector control” value (AfOPTH) was “carried out uptake experiments with AfOPTH to confirm its ability to transport folates”.
